Earlier results in patent US11452768B2, “Combination therapy with neoantigen vaccine” (The Broad Institute Inc., priority 2013, dated 2022).

How the values were obtained:
advanced melanoma = conditions: nivolumab and ipilimumab combined, intravenous
ovarian carcinoma = conditions: in combination with NY-ESO-1 peptide vaccine and Montanide
[1] = tested on: gene expression in whole blood; conditions: one single s.c. administration, 8 volunteers vs 4 placebo
[2] = tested on: advanced hormone refractory prostate cancer; conditions: personalized vaccination combined with a low dose of estramustine

nivolumab: fully human IgG4 blocking monoclonal antibody against PD-1
Objective responses (tumor types; across tumor types): 16-31%
Durability of most responses (tumor types; in vivo): > 1 year
Safety (tumor types; in vivo): safe
Maximum doses associated with an acceptable level of adverse events (advanced melanoma): 1 mg per kilogram

Polyinosinic-Polycytidylic Acid-poly-L-lysine Carboxymethylcellulose [poly-ICLC]
Patients showing induction of CD4+ and CD8+ T cell and antibody responses to the peptide (ovarian carcinoma): > 90%
Differentially expressed genes versus placebo [1]: up to 212 genes
Fever (common adverse event, primary dose-limiting factor) (high doses ≥6 mg/m2): above 40 °C
Tolerability across all studies and spectrum of diseases (low dose (1-2 mg total dose)): well-tolerated

C[C@]12CC[C@@H]3c4ccc(OC(=O)N(CCCl)CCCl)cc4CC[C@H]3[C@@H]1CC[C@@H]2O [estramustine]
Patients with a ≥50% decrease in serum prostate specific antigen (PSA) [2]: 54%

ipilimumab: monoclonal antibody that binds and blocks CTLA-4
Maximum doses associated with an acceptable level of adverse events (advanced melanoma): 3 mg per kilogram
